# Laboratory results as given in patent US20220125882A1, “METHODS AND COMPOSITIONS FOR TREATMENT OF CANCER” (Enzychem Lifesciences Corporation, priority 2019, published 2022).
# Several values for one entry are separate records, joined by “and”; a condition that tells them apart may be missing. Equal entries are not always repeated. Entries after “also recorded” stand apart in the source; their conditions may differ.
# B1: G-CSF: granulocyte colony-stimulating factor used with neutrophils to co-stimulate MDA-MB-231 cells; form not specified (protein, UniProt P09919 31-207, looked up)
# Granulocyte …: TPLGPASSLPQSFLLKCLEQVRKIQGDGAALQEKLVSECATYKLCHPEELVLLGHSLGIPWAPLSSCPSQALQLAGCLSQLHSGLFLYQGLLQALEGISPELGPTLDTLQLDVADFATTIWQQMEELGMAPALQPTQGAMPAFASAFQRRAGGVLVASHLQSFLEVSYRVLRHLAQP
# B2: PEG-G-CSF: pegfilgrastim, a PEGylated form of filgrastim (recombinant human G-CSF) (protein, UniProt P09919 31-207, looked up)
# Granulocyte …: B1 Granulocyte …
# modifications: PEG, N-terminal methionine
# What was measured:
# Smad proteins = assay: Smad protein activity by Western blotting in MDA-MB-231; assay type: cell-based; details: TAN and G-CSF co-stimulation
# Experimental: (§1) MDA-MB-231 and HL60 cells were obtained from the American Type Culture Collection (ATCC, Rockville, Md., USA). MDA-MB-231 cells were grown in DMEM medium (WELGENE, Seoul, Korea) containing 10% fetal bovine serum (HyClone, Waltham, Mass., USA), 1% antibiotics (100 mg/l streptomycin, 100 U/ml penicillin), and 0.4% 2-Mercaptoethanol (Sigma Aldrich, St. Louis, Mo., USA). HL60 cells were grown in DMEM medium containing 10% fetal bovine serum and 1% antibiotics (100 mg/l streptomycin, 100 U/ml penicillin). Cells were grown at 37° C. in a 5% CO2 atmosphere. To differentiate HL60 cells into neutrophil-like cells, cells were grown in medium with […] (Sigma Aldrich) for 5 days.
# (§2) MDA-MB-231 cells treated with PLAG and stimulated to induce neutrophil and G-CSF co-stimulation for various times at 37° C. in a 5% CO2 atmosphere were lysed using ice-cold IP lysis buffer (25 mM Tris-HCl pH 7.4, 150 mM NaCl, 1% NP-40, 1 mM EDTA, 5% glycerol). Extracted proteins were incubated with Surebeads Protein G specific antibody bound magnetic beads (Bio-Rad, Hercules, Calif., USA). Beads were washed with PBS with Tween 20 (PBST) and target proteins eluted in 1× sample buffer and analyzed by Western blotting.
# Snail = assay: PCR of EMT marker expression in MDA-MB-231: Snail; assay type: cell-based; details: for Snail PCR band intensity (relative intensity): MDA-MB-231, Neutrophil co-culture, relative to None = 1, Samples 1-3; for expression level of SNAIL: neutrophil and G-CSF co-stimulation group, with or without PLAG
# Experimental: as §1
# (§3) Total RNA was extracted using RiboEx (GeneAll biotechnology, Seoul, Korea) according to the manufacturer's instructions, and cDNA was generated using ReverseAids cDNA synthesis kit (Thermo Scientific, Waltham, Mass., USA) according to the manufacturer's instructions. PCR was performed with the following temperature profile: a pre-denaturation step of 10 min at 95° C., followed by 35 cycles of 95° C. for 30 sec, annealing temperature for 30 sec and 72° C. for 30 sec and a final exposure to 72° C. for 10 min. Specific primer sequence for amplification was Table 5.
# SMAD2/3-SMAD4 complex = assay: Immunoprecipitation of Smad complex in MDA-MB-231; assay type: cell-based; details: TAN and G-CSF co-stimulation
# Experimental: as §1, §2
# IFN-γ = IFN-γ ELISA of cell supernatants; assay type: cell-based; details: for IFN-γ ELISA (450 nm OD): Samples 1-3; for secretion of IFN-γ: TAN environment, PLAG treatment, or G-CSF co-stimulation vs neutrophil only group
# Experimental: as §1
# (§4) The levels of cytokine secretion in the cell supernatants or plasma were analyzed using an enzyme-linked immunosorbent assay (ELISA) specifically for cytokines from BD Bioscience according to the manufacturer's protocol. The absorbance was measured at 450 nm using an EMax Endpoint ELISA microplate reader (Molecular Devices Corporation, Sunnyvale, Calif., USA).
# N-cadherin = assay: PCR of EMT marker expression in MDA-MB-231: N-cadherin; assay type: cell-based; details: for N-cadherin PCR band intensity (relative intensity): MDA-MB-231, Neutrophil co-culture, relative to None = 1, Samples 1-3; for expression level of NCAD: neutrophil and G-CSF co-stimulation group, with or without PLAG
# Experimental: as §1, §3
# [1] = system: MDA-MB-231 breast cancer cells; assay: Wound healing assay (mobility), TAN / G-CSF co-culture; assay type: cell-based; details: for mobility of the cancer cells: G-CSF and neutrophil co-stimulation group, with or without PLAG
# Experimental: as §1
# MDA-MB-231 were seeded in 12 well plate with cover glass, and incubated to 100% confluence at well. After the incubation, make the wound cell monolayer on center of well. A treated PLAG and neutrophil and G-CSF co-stimulation for indicate time. After treatment the indicated time and dose at 37° C. in a 5% CO2 atmosphere, the cells were fixed with 3.7% formaldehyde for 20 min and permeabilized with 0.2% Triton X-100 for 20 min and stained with 0.1% Phalloidin-FITC for 40 min. Fluorescence was detected by confocal (Carl Zeiss, Thornwood, N.Y., USA).
# [2] = system: MDA-MB-231 breast cancer cells; assay: Transwell invasion assay (MTT readout); assay type: cell-based; details: for transwell invasion of the cancer cells: G-CSF and neutrophil co-stimulation group, with or without PLAG; for Invasive cell count (MTT assay, % transform): MDA-MB-231, Samples 1-3
# Experimental: as §1
# Quantitative macrophage chemoattraction assays were performed using a modified Boyden chamber (SPL lifescience, Seoul, Korea) with 8.0-μm pore polycarbonate membrane inserts with matrigel-coated in 24-well plates. The lower chamber was filled with apoptotic neutrophils for chemoattraction. The MDA-MB-231 cells (5×10^4 cells/ml) in serum-free medium were added into the upper chamber and treated with PLAG. The cells were allowed to chemoattraction (Neutrophil co-culture supernatant) for indicate times at 37° C. in a 5% CO2 atmosphere. The non-chemoattracted cells were removed from the upper surface of the membrane by scraping with a cotton swab, and the chemoattracted cells were calculate by MTT assay.
# SMAD2/3 = assay: Confocal immunofluorescence of Smad nucleus translocation in MDA-MB-231; assay type: cell-based; details: TAN and G-CSF co-stimulation
# Experimental: as §1
# MDA-MB-231 cells were seeded in 12 well plate with cover glass, and incubated to 60% confluence at well. After the incubation, treated PLAG and neutrophil and G-CSF co-stimulation for indicate time. After treatment the indicated time at 37° C. in a 5% CO2 atmosphere, the cells were fixed with 3.7% formaldehyde for 20 min and permeabilized with 0.2% Triton X-100 for 20 min for staining. Cells were washed with PBST twice and reacted with specific antibody (SMAD2/3) for over-night at 4° C. Cells were washed with PBST twice and reacted secondary antibody. For nucleus detection, it stained with 1% Hoechst33342 for 20 min. Fluorescence was detected by confocal (Carl Zeiss, Thornwood, N.Y., USA).
# Vimentin = assay: PCR of EMT marker expression in MDA-MB-231: Vimentin; assay type: cell-based; details: for Vimentin PCR band intensity (relative intensity): MDA-MB-231, Neutrophil co-culture, relative to None = 1, Samples 1-3; for expression level of Vimentin: neutrophil and G-CSF co-stimulation group, with or without PLAG
# Experimental: as §1, §3
# TGF-β = TGF-β ELISA of cell supernatants; assay type: cell-based; details: for TGF-β ELISA (450 nm OD): Samples 1-3; for secretion level of TGF-β: TAN and G-CSF costimulation environment, with or without PLAG
# Experimental: as §1, §4
# 4T1 cell line = assay: 4T1 tumor-bearing mouse model: tumor size and weight on Day 8; assay type: in vivo, BALB/c mice; details: for % weight Increase: % increase (+) or decrease (−) of tumor weight over body weight compared to control; for Tumor Weight Increase: change of average tumor weight compared to control; for Tumor Weight Average / % weight Average: group average; for Tumor Weight No. 1 / % weight No. 1: individual mouse No. 1; for Tumor Weight No. 1: 4T1 tumor-bearing BALB/c mice; for Tumor Weight No. 2 / % weight No. 2: individual mouse No. 2; for Tumor Weight No. 3 / % weight No. 3: individual mouse No. 3; for Tumor Weight No. 4 / % weight No. 4: individual mouse No. 4; for Tumor Weight No. 5 / % weight No. 5: individual mouse No. 5; for % weight Average / % weight No. 1 / % weight No. 2 / % weight No. 3 / % weight No. 4 / % weight No. 5: tumor weight over body weight
# Experimental: On Day 2 and Day 3, the mice were administered 10 mg/kg of gemcitabine twice. On Day 4, 3 μg/mouse of PEG-G-CSF (Pegfilgrastim) was administrated via subcutaneous injection to the mice once. On every day of the study, 50 mg/kg of EC-18 diluted with PBS was administrated orally to the mice. A total of 24 tumor-bearing mice were classified into 5 groups consisting of control group (4 mice, Control), G-CSF administration group (5 mice, PEG-G-CSF), gemcitabine administration group (5 mice, Gemcitabine), G-CSF and gemcitabine co-administration group (5 mice, Gem+PEG), and EC-18 co-administration group (5 mice, Gem+PEG+EC-18), as summarized in Table 1 and FIG. 1A.
# On Day 8, all mice were sacrificed and their tumors removed. The size and weight of the tumors were measured.
Molecule,Snail PCR band intensity (relative intensity) (Snail),expression level of SNAIL (Snail),IFN-γ ELISA (450 nm OD) (IFN-γ; Neutrophil co-culture),secretion of IFN-γ (IFN-γ),N-cadherin PCR band intensity (relative intensity) (N-cadherin),expression level of NCAD (N-cadherin),mobility of the cancer cells [1],transwell invasion of the cancer cells [2],"Invasive cell count (MTT assay, % transform) ([2]; Neutrophil co-culture)",Vimentin PCR band intensity (relative intensity) (Vimentin),expression level of Vimentin (Vimentin),TGF-β ELISA (450 nm OD) (TGF-β; Neutrophil co-culture),secretion level of TGF-β (TGF-β),% weight Increase (4T1 cell line),Tumor Weight Increase (4T1 cell line; Day 8),Tumor Weight Average (4T1 cell line; Day 8) [×0.01 g],Tumor Weight No. 1 (4T1 cell line; Day 8) [×0.01 g],Tumor Weight No. 2 (4T1 cell line; Day 8) [×0.01 g],Tumor Weight No. 3 (4T1 cell line; Day 8) [×0.01 g],Tumor Weight No. 4 (4T1 cell line; Day 8) [×0.01 g],further results
"CCCCC/C=C\C/C=C\CCCCCCCC(=O)OC(COC(C)=O)COC(=O)CCCCCCCCCCCCCCC (stereo not shown) [PLAG, 1-palmitoyl-2-linoleoyl-3-acetylglycerol]",0.531 and 0.749 and 0.527,expression was decreased,0.181 OD and 0.158 OD and 0.164 OD,significantly increased,0.723 and 0.747 and 0.732,expression was decreased,inhibited the cancer cell abnormal-metastasis,inhibited the cancer cell abnormal-metastasis,212.500% and 235.417% and 216.667%,0.501 and 0.512 and 0.504,expression was decreased,0.484 OD and 0.476 OD and 0.474 OD,did not significantly decrease; also recorded: did not change,,,,,,,,"SMAD activity (TGF-β signal pathway) (Smad proteins): decreased; formation of the SMAD2/3-SMAD4 complex (SMAD2/3-SMAD4 complex): decreases; IFN-γ ELISA (450 nm OD) (IFN-γ; without neutrophil): 0.144 OD and 0.149 OD and 0.156 OD; mobility of MDA-MB-231 cells ([1]; neutrophil-stimulated): mobility decreased; Invasive cell count (MTT assay, % transform) ([2]; without neutrophil): 89.583% and 104.167% and 102.083%; transwell invasion of MDA-MB-231 cells ([2]; neutrophil-stimulated culture sup.): invasion of cancer cells is decreased; nucleus translocation of SMAD2/3 and SMAD4 (SMAD2/3): decreased; TGF-β ELISA (450 nm OD) (TGF-β; without neutrophil): 0.248 OD and 0.287 OD and 0.208 OD"
"Nc1ccn([C@@H]2O[C@H](CO)[C@@H](O)C2(F)F)c(=O)n1 [Gemcitabine, gemcitabine, reference compound]",,,,,,,,,,,,,,−22.6%,−25.0%,24 ± 12,38,9,32,27,tumor weight decreased compared to control (4T1 cell line; Day 8): about 25%; Tumor Weight No. 5 (4T1 cell line; Day 8): 14 ×0.01 g; % weight Average (4T1 cell line; Day 8): 0.97 ± 0.51%; % weight No. 1 (4T1 cell line; Day 8): 1.55%; % weight No. 2 (4T1 cell line; Day 8): 0.36%; % weight No. 3 (4T1 cell line; Day 8): 1.32%; % weight No. 4 (4T1 cell line; Day 8): 1.08%; % weight No. 5 (4T1 cell line; Day 8): 0.54%
B1,2.4 and 2.781 and 1.635,increased,0.139 OD and 0.102 OD and 0.094 OD,significantly lower,4.517 and 4.511 and 5.214,increased,further increased,further increased,366.667% and 352.083% and 383.333%,1.832 and 1.854 and 1.867,increased,0.439 OD and 0.446 OD and 0.414 OD,increased,,,,,,,,
B2,,,,,,,,,,,,,,+22.7%,+19.4%,38 ± 11,47,30,53,30,tumor weight increased compared to control (4T1 cell line; Day 8): about 19.4%; Tumor Weight No. 5 (4T1 cell line; Day 8): 31 ×0.01 g; % weight Average (4T1 cell line; Day 8): 1.54 ± 0.52%; % weight No. 1 (4T1 cell line; Day 8): 2.02%; % weight No. 2 (4T1 cell line; Day 8): 1.12%; % weight No. 3 (4T1 cell line; Day 8): 2.20%; % weight No. 4 (4T1 cell line; Day 8): 1.20%; % weight No. 5 (4T1 cell line; Day 8): 1.17%
